Biological target: T1, Human CGT (Homo sapiens, UniProt Q16880)
T1 construct: made in house; host or cells: CHO cells expressing UGT8; crude M-PER lysate
T1 sequence (Q16880 21-541): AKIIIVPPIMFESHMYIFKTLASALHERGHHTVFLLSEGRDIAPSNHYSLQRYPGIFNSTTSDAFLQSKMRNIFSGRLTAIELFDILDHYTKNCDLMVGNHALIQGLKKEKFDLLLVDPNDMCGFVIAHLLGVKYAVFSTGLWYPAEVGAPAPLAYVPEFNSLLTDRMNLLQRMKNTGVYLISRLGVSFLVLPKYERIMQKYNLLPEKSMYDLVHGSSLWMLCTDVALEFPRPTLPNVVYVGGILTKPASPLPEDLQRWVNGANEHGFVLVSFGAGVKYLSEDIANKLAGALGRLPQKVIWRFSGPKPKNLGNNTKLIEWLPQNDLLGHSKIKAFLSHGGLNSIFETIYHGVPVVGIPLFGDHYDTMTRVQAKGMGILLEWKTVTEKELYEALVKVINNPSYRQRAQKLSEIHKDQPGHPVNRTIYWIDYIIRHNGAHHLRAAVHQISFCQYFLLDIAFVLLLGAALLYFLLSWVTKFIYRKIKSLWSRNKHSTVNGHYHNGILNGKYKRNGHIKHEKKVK
Assay: CGT enzyme assay (cell-lysate assay)
Assay type: biochemical
Conditions: lysate of CHO cells expressing human UGT8
Protocol: Human CGT was obtained from a cell lysate from CHO cells expressing UGT8 (made by BioMarin) prepared in M-PER with proteinase inhibitors (Sigma). Compounds, serially diluted in DMSO and Tween 80, were added to 4 µg/well of CHO/CGT cell lysate to make 20 µL final reaction volume containing 0.5% DMSO and 0.01% Tween 80 in the reaction buffer consisting of 10 µM NDB-(2R-OH)-C6 ceramide (made by BioMarin), 17.5 µM UDP-Galactose (Sigma), 35 µM of dioleoylphosphatidylcholine (DOPC), 5 mM MgCl2, 5 mM MnCl2, 1% BSA, 15 mM KCl, 1 mM EGTA, 8 mM CHAPS, 10 mM HEPES–NaOH pH 7.2. The reaction was incubated at 37 °C for 1 h and stopped by adding 80 µL of methanol:acetonitrile (1:3) with 5 µM N-dodecanoyl-NBD-galactosylceramide (Matreya) internal standard (IS) for 30 min. 200 µL H2O:ACN (1:1) was added for 5 min and then centrifuged at 4000 rpm for 38 min at RT before quantifying NDB-(2R-OH)-C6-galactosylceramide (BioMarin) by LC–MS on a Rapid Fire 360 mass spectrometer (Agilent) coupled with a API4000 + MS in electrospray ionization (ESI) negative mode (Applied Biosystems). These assay conditions were used to screen the Bio-active lipid library (Cayman Cat# 10506).

For `O=C1N(c2ccc(Br)cc2)C(=O)C(O)(c2ccccc2)N1c1ccc(Br)cc1` (stereo not shown) [S221], the IC50 was 23 µM.
